IC50 data for eleven compounds are collected here from patent publication US12534469B2 (CHILDREN'S HOSPITAL MEDICAL CENTER, priority 2020, dated 2026).

Holding throughout (type): biochemical
One experiment concerns the target T1, FLT3 (Homo sapiens, UniProt P36888).
T1 construct: purchased Reaction Biology (RBC HotSpot Kinase Assay)
T1 sequence (P36888 564-958 limits assumed): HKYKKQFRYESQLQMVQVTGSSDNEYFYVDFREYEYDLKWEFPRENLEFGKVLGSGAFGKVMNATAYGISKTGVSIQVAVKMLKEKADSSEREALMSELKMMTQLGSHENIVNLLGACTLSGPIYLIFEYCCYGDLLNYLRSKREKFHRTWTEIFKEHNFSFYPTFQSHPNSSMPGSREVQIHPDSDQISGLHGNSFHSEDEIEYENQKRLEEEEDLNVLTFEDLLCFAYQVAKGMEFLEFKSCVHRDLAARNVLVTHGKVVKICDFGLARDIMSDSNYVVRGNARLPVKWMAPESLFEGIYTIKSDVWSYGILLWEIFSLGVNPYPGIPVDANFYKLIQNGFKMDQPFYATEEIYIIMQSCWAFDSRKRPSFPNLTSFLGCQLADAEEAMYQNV
The experiment can be described thus: RBC HotSpot Kinase Assay, FLT3. The text has this:
(§1) This assay uses the isolated kinase enzyme. This assay is very useful for determining competition of the inhibitor for ATP and/or substrates and for measuring the kinetics of enzyme inhibition. […] Unlike kinase binding assays that measure competition for ATP, the HotSpot Kinase Assay is a functional assay that measures catalytic activity; as such it measures relative functional potency regardless of the mechanism of enzyme inhibition. This assay uses the form of the various enzymes that are easiest to express, which may not necessarily be the form of the enzyme that exist in the cell. (Sometimes the carboxy terminus has been truncated to aid in expression, or, if it is a receptor kinase, the enzyme itself is isolated from the other parts of the receptor that are involved in regulating kinase activity.)
(§2) The reagent used was as follows: Base Reaction buffer; 20 mM Hepes (pH 7.5), 10 mM MgCl2, 1 mM EGTA, 0.01% Brij35, 0.02 mg/ml BSA, 0.1 mM Na3VO4, 2 mM DTT, 1% DMSO. Required cofactors were added individually to each kinase reaction.
(§3) The reaction procedure was as follows: • 1) Substrates were prepared in freshly prepared Reaction Buffer. • 2) Any required cofactors were delivered to the substrate solution above. • 3) Kinase was delivered into the substrate solution and gently mixed. • 4) Compounds were delivered in 100% DMSO into the kinase reaction mixture by Acoustic technology (Echo550; nanoliter range), followed by incubation for 20 min at room temp. • 5) ^33P-ATP was delivered into the reaction mixture to initiate the reaction. • 6) The mixture was incubated for 2 hours at room temperature. • 7) Kinase activity was detected by P81 filter-binding method.

For the next experiment, the target named is T2, IRAK1 (Homo sapiens, UniProt P51617).
T2 construct: purchased Reaction Biology (RBC HotSpot Kinase Assay)
The experiment can be described thus: RBC HotSpot Kinase Assay, IRAK1.
Source text: as §1, §2, §3

A further experiment deals with T3, IRAK4 (Homo sapiens, UniProt Q9NWZ3).
T3 sequence (Q9NWZ3 1-460): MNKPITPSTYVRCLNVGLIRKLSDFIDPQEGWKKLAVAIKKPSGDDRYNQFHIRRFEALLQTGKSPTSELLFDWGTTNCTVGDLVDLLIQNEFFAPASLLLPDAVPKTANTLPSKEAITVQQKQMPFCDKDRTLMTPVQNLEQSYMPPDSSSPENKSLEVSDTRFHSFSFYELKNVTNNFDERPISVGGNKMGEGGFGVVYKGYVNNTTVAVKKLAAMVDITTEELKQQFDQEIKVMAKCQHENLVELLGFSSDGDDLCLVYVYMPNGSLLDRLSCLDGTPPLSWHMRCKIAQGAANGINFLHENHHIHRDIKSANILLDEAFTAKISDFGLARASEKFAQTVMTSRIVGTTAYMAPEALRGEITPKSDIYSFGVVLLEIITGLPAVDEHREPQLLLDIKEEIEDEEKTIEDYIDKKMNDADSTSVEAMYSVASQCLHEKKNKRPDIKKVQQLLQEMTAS
The experiment in a line: RBC HotSpot Kinase Assay, IRAK4. On the set-up: purchased Reaction Biology (RBC HotSpot Kinase Assay).
Source text: as §1, §2, §3

T2 sequence (P51617 whole entry): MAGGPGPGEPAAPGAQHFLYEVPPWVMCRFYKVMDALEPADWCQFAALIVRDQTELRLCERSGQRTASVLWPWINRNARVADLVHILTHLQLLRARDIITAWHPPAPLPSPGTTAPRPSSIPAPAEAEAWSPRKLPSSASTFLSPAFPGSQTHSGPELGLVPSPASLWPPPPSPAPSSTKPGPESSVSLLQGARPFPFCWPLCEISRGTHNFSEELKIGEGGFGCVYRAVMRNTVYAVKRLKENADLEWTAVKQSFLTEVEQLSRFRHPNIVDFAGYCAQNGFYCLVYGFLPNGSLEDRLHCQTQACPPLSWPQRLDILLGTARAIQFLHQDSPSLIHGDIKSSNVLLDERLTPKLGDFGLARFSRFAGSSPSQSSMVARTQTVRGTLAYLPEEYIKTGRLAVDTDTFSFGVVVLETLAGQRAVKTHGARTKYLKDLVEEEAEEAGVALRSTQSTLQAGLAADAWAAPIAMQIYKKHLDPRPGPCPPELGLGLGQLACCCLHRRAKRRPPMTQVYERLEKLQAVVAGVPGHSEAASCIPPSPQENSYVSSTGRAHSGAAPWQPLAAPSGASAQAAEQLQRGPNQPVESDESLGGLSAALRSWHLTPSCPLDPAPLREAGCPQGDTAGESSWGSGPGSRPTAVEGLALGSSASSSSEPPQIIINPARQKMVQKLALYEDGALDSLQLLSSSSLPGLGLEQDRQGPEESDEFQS

As for `CC(C)(O)Cn1cc(-c2ccc3ncc(-c4cccc(NC5CNCC5(F)F)n4)n3n2)cn1` (stereo not drawn) [Compound 24, 1-(4-(3-(6-((4,4-difluoropyrrolidin-3-yl)amino)pyridin-2-yl)imidazo[1,2-b]pyridazin-6-yl)-1H-pyrazol-1-yl)-2-methylpropan-2-ol], the results for the IC50 against FLT3, on IRAK1 and against IRAK4 were 17 nM, 1640 nM and 261 nM, respectively.

`FC(F)n1cc(-c2ccc3ncc(-c4cccc(N[C@H]5CNC[C@@H]5F)n4)n3n2)cn1` [Compound 2, 6-(6-(1-(difluoromethyl)-1 H-pyrazol-4-yl)imidazo[1,2-b]pyridazin-3-yl)-N-((3S,4S)-4-fluoropyrrolidin-3-yl)pyridin-2-amine]: the IC50 – broadly, the concentration at which inhibition is half-maximal – was determined as 2 nM on FLT3, 948 nM at IRAK1 and 115 nM against IRAK4.

For `F[C@H]1CNC[C@@H]1Nc1cccc(-c2cnc3ccc(Oc4ccccc4)nn23)n1` [Compound 88, N-((3S,4S)-4-fluoropyrrolidin-3-yl)-6-(6-phenoxyimidazo[1,2-b]pyridazin-3-yl)pyridin-2-amine], the results for the IC50 on FLT3, against IRAK1 and on IRAK4 were 22 nM, 7240 nM and 959 nM, respectively.

On to `c1cc(NC2CC3(CNC3)C2)nc(-c2cnc3ccc(-c4cnn(C5CCOCC5)c4)nn23)c1` [Compound 34, N-(6-(6-(1-(tetrahydro-2H-pyran-4-yl)-1H-pyrazol-4-yl)imidazo[1,2-b]pyridazin-3-yl)pyridin-2-yl)-2-azaspiro[3.3]heptan-6-amine], for which the IC50 against FLT3 is 16 nM; against IRAK1, over 10000 nM; at IRAK4, 5070 nM.

`CC(C)(C)c1ccc2ncc(-c3cccc(N[C@H]4CNC[C@@H]4F)n3)n2n1` [Compound 80, 6-(6-(tert-butyl)imidazo[1,2-b]pyridazin-3-yl)-N-((3S,4S)-4-fluoropyrrolidin-3-yl)pyridin-2-amine]: the IC50 against FLT3 came to 11 nM; on IRAK1, 3420 nM; on IRAK4 it was 231 nM.

As for `F[C@H]1CNC[C@@H]1Nc1cccc(-c2cnc3ccc(N4CCC4)nn23)n1` [Compound 93, 6-(6-(azetidin-1-yl)imidazo[1,2-b]pyridazin-3-yl)-N-((3S,4S)-4-fluoropyrrolidin-3-yl)pyridin-2-amine], the IC50 against FLT3 amounted to 4 nM; against IRAK1, 2680 nM; at IRAK4, 39 nM.

Turning to `O[C@H]1CNC[C@@H]1Nc1cccc(-c2cnc3ccc(C4CC4)nn23)n1` [Compound 70, (3S,4S)-4-((6-(6-cyclopropylimidazo[1,2-b]pyridazin-3-yl)pyridin-2-yl)amino)pyrrolidin-3-ol], the IC50 at FLT3 stood at 18 nM; at IRAK1 it was 5190 nM; at IRAK4, 586 nM.

Take `FC(F)n1cc(-c2ccc3ncc(-c4cccc(NC5CNCC5(F)F)n4)n3n2)cn1` (stereo not drawn) [Compound 23, 6-(6-(1-(difluoromethyl)-1H-pyrazol-4-yl)imidazo[1,2-b]pyridazin-3-yl)-N-(4,4-difluoropyrrolidin-3-yl)pyridin-2-amine]: the IC50 was found to be 16 nM against FLT3, 1150 nM at IRAK1 and 75 nM on IRAK4.

For the compound `F[C@H]1CNC[C@@H]1Nc1cccc(-c2cnc3ccc(NC4CCC4)nn23)n1` [Compound 91, N-cyclobutyl-3-(6-(((3S,4S)-4-fluoropyrrolidin-3-yl)amino)pyridin-2-yl)imidazo[1,2-b]pyridazin-6-amine], the IC50 against FLT3 was found to be 6 nM; against IRAK1 it was 1640 nM; on IRAK4, 101 nM.

Take `COc1cc2ncc(-c3cccc(N[C@H]4CNC[C@@H](F)C4)n3)n2nc1C1(C(F)(F)F)CC1` [Compound 86, N-((3R,5S)-5-fluoropiperidin-3-yl)-6-(7-methoxy-6-(1-(trifluoromethyl)cyclopropyl)imidazo[1,2-b]pyridazin-3-yl)pyridin-2-amine]: the IC50 at FLT3 was determined as 2 nM; against IRAK1, 937 nM; against IRAK4, 37 nM.

Consider `FC(F)n1cc(-c2ccc3ncc(-c4cccc(N[C@@H]5CCCNC5)n4)n3n2)cn1` [Compound 16], for which the IC50 against FLT3 is under 0.5 nM; against IRAK1, 3060 nM; against IRAK4 it was 157 nM.
